The values below come from patent US20240252594A1, “COMBINATION THERAPY FOR NEURODEGENERATIVE DISEASES” (ALETA NEUROSCIENCE, LLC, priority 2021, published 2024).

The subject of data set [1] is human dopaminergic neurons (iCell DopaNeurons). The experiment in a line: MPP+-induced neurotoxicity: neurite outgrowth (neurite length, branch points) on iCell DopaNeurons. Format: cell-based. The text has this:
MPP+(1-methyl-4-phenylpyridinium) is a known neurotoxin which acts by interfering with oxidative phosphorylation in mitochondria by inhibiting complex I, a protein in the membrane of mitochondria in dopaminergic neurons in the substantia nigra.(94) The inhibition of mitochondrial function leads to the depletion of ATP and eventual cell death. MPP+ ultimately causes Parkinsonism in primates by killing certain dopamine-producing neurons in the substantia nigra.
iCell DOPA neurons are neural floor plate-derived midbrain dopaminergic neurons generated from human induced pluripotent stem cells (iPSCs). Dopaminergic neurons, specifically those located in the floor plate-derived midbrain are implicated in neurological disorders such as Parkinson's disease, MSA and DLBD among others. […] The iCellDopa neurons were supplied from FUJIFILM Cellular Dynamics.
(§1) Procedure. iCell DOPA neurons were thawed and cultured following the provider's instructions in Brainphys medium+provided supplements+1% N2 supplement (Stemcell Technologies)+penicillin/streptomycin+Laminin. They were plated at 20000 cells per well of a 384 well plate (pre-coated with poly-D-lysine and Laminin) in 70 μL of growth medium. Cells were incubated at 37° ° C./5% CO2 in a humidified cell culture incubator. Half of the culture medium was changed twice a week.
(§2) MPP+-induced neurotoxicity: 24 hours after neuronal plating, half of the medium was removed and the test compounds were applied with MPP+ treatment, both concentrated at 4×, were added to the wells. For each well, five aliquots were added, corresponding columns A-E in Table 3. In each row, either the compound indicated dissolved in its vehicle noted in Table 2 was added, or only a vehicle was added as indicated. Column E is an indicator of whether MPP+ was added. If not, only the medium was added.
(§3) For the evaluation of conditions 8, 10,12, 22, 24, Neurite outgrowth was followed for subsequent 48 hours using an Incucyte Zoom platform with one phase contrast image every 4 hours, using a 20× objective. After 48 hours, the medium containing test compounds and MPP+ was removed and replaced by fresh medium containing a fluorescent cytolysis marker (red fluorescence) and a live cell marker (green fluorescence). For the evaluation of conditions 10, 12, 24, 38, 40, 51-53, Neurite outgrowth was followed similarly for subsequent 72 hours after MPP+ was added.
Assay endpoints and data analysis. Phase contrast images were analyzed at each time point to determine the neurite length and number of branch points per mm^2. Kinetic data was plotted and kinetics were normalized by subtracting the value of the first data point (at time of treatment), allowing to measure changes in neurite outgrowth only from the onset of the treatment, starting at zero. Area Under Curve (AUC) of kinetic data was obtained and used for plotting compound's effects and perform statistical analyzes.

A further data set relates to R6/2 HD mice. The following applies: 10-day oral treatment, 9-week mice; cited from earlier work.
For another data set, the system named is PD patients. The settings on record: at 6 months; cited from earlier work.
Data set [2] relates to human dopaminergic neurons (iCell DopaNeurons). The experiment in a line: MPP+-induced neurotoxicity: cytolysis of iCell DopaNeurons. In kind it is cell-based. The settings on record: for Cytolysis, Mean ± S.D.: with MPP+ 100 μM. The method, then:
Three different measurements were made in the experiments. Neurite length in mm was measured, which is a measure of increase in dendril length of neurons. […] Secondly, neurite branching was measured. […] Thirdly, cytolysis of the cells was measured. […] Experimental conditions were measured relative to the results of healthy cells in the studies.
as §1, §2, §3
Data was normalized to control conditions as there is basal cytolysis in the cell culture after thawing.

The subject of data set [3] is CXCL1/GROα mediated neuroinflammation in microglial cells. The experiment in a line: LPS/ATP-induced neuroinflammation in microglia: CXCL1/GROα secretion (Luminex). Format: cell-based, human. The text has this: (§4) In addition to the studies discussed above assessing activity of combinations of drugs on MPP+-induced neurodegeneration toxicity on human dopaminergic neurons as well as on a human iPSC cell line harboring a triplication mutation in alpha-synuclein gene, and measuring neuronal growth, neurite branching and neurofilament heavy chain, we also assessed combinations of drugs in reducing lipopolysaccharide (LPS, from E. coli)-induced neuroinflammation in human microglia cells.
(§5) Lipopolysaccharides are important outer membrane components of gram-negative bacteria such as E. coli and Salmonella. They are large amphipathic glycoconjugates that typically consist of a lipid domain (hydrophobic) attached to a core oligosaccharide and a distal polysaccharide. LPS binds to Toll-like receptor 4 (TLR4) and activates microglia(98) which in turn increases secretion of pro-inflammatory cytokines such as interleukin-6 (IL-6), tumor necrosis factor-α (TNF-α), and CXCL1/GROα.
(§6) Microglia cells were obtained from an iCell® Microglia kit, 01279 (Catalogue N^o R1131) from FUJIFILM Cellular Dynamics. We followed the manufacturer's protocol for activation of the microglial cells with LPS/ATP to subsequently measure the effect of the study drugs on pro-inflammatory cytokines IL-6, TNF-α and CXCL1/GROα.
(§7) All cell culture procedures were performed in aseptic conditions, under a laminar flow hood. Microglia were thawed and cultured following the provider's instructions. The microglia were plated at 50,000 cells per well of a Corning Primaria 96 well plate (Ref N^o 353872) in 100 μL of growth medium. Cells were incubated at 37° C./5% CO2 in a humidified cell culture incubator.
(§8) Three days after cell plating, the test or reference substances (25 μL of solutions at 5×) were applied 1 hour before LPS and ATP stimulation.
(§9) One hour later, 12.5 μL of test or reference substances were added again at 2× concentrated followed by 12.5 μL of LPS at 12× concentration. Fifty microliters of ATP were introduced at 4× concentration, 5 h 30 min after incubation with LPS.
(§10) Six hours after LPS incubation, the supernatant of each well was collected and centrifugated at 1000 g for 10 minutes to remove the cells and debris.
(§11) Fifty microliters of supernatant from NT and LPS+ATP-treated wells were used to determine cytokine secretion (IL-6, TNF-α, CXCL1/GROα) by Luminex platform according to the provider's instructions. Samples were diluted prior to the assay to fit within the standard range if needed. Three wells were tested per each condition (Table 11). Cytokines levels in the supernatant were expressed in pg/mL. The data was analyzed using a One-Way ANOVA followed by Bonferroni test.

Data set [4] relates to riluzole-treated patients. The following applies: cited from earlier work.
Another data set has as its system R6/2 transgenic mice. The settings on record: 500 mg/kg; cited from earlier work.
The subject of data set [5] is iPSC-derived dopaminergic (DA) neurons harboring triplication of the α-synuclein locus. The experiment in a line: α-Synuclein triplication cell line: neurofilament heavy chain signal intensity. Format: cell-based, human. The settings on record: normalized to Hoechst signal; three months treatment; PBA 500 μM, TUDCA 50 μM, EXD 100 nM.
Description: We used 12 replicas for each experimental condition and 16 replicas for control (untreated cells). […] Cells were washed three times with warm phosphate buffered saline (PBS) and imaged immediately at 20× magnification on an imageXpress Micro confocal at 37° C. and 5% CO2.
Following imaging, cells were immediately fixed with 4% paraformaldehyde for 30 minutes at room temperature, washed three times with PBS, permeabilized with 0.2% Triton X-100 for 30 minutes, blocked with Odyssey Blocking Buffer for 60 minutes, and incubated overnight at 4° C. with primary antibodies, neurofilament (1:1000, Synaptic Systems 171 002) and LB509 (1:100, Abcam ab27766). Cells were washed 3× with 0.1% Tween-20 in PBS and incubated with Alexa Fluor Goat Anti-Rabbit 790 (1:1000) and Goat Anti-Mouse 647 (1:1000) for 1 hour at RT, before washing 3× with 0.1% Tween-20 in PBS and imaging with Sapphire Biomolecular Imager. Neurofilament heavy chain signal intensity was normalized to fixed Hoechst signal measured with Spectra Gemini plate reader (ex=350 nm, em=461 nm), using Hoechst 33342 nucleic acid stain from Invitrogen according to the manufacturer's instructions. Neurofilaments (NF) are located mostly in axons and indicate roughly the content of neurites. If neurodegeneration is halted or reversed, NF signal increases because it correlates with the number and/or length of neurites in the well.
Another data set deals with APP/PS1 mice. The settings on record: 6-month treatment with 0.4% of TUDCA in diet; cited from earlier work.
The next data set has as its system cortical neurons. The settings on record: 100 μM for 12 h; cited from earlier work.
In the next data set the test system is MPTP mouse model. The settings on record: pre-treatment 50 mg/kg for 3 days; cited from earlier work.
The test system of data set [6] is IL-6 mediated inflammation in microglial cells. The experiment in a line: LPS/ATP-induced neuroinflammation in microglia: IL-6 secretion (Luminex). Format: cell-based, human.
Description: as §4, §5, §6, §7, §8, §9, §10, §11

Data set [7] concerns TNF-α mediated neuroinflammation in microglial cells. The experiment in a line: LPS/ATP-induced neuroinflammation in microglia: TNF-α secretion (Luminex). In kind it is cell-based, human.
Description: as §4, §5, §6, §7, §8, §9, §10, §11

The subject of another data set is SOD(G93A) mice. The following applies: treatment from 75 days; cited from earlier work.
Data set [8] relates to patients with rapidly progressive SOD1 ALS. The settings on record: not statistically significant; cited from earlier work.
The mark [9] stands for this setting: LPS (100 ng/mL) + ATP (5 mM), six hours after LPS.
[10] abbreviates: compared with […] distilled water in presence of LPS and ATP.

Turning to `Cc1c(O)c(=O)ccn1C` [DFP, Deferiprone], the “Protective effect on neurite length and branching (in words)” value in data set [1] (MPP+ 100 μM) is recorded as “substantially inferior to condition 40”. In addition, the “Neurite length - Baseline-corrected AUC (0-72 h), Mean” value in data set [1] (Table 6.1, plate 2, with MPP+ 100 μM) turned out to be 874.5 mm/mm^2. Moreover, the “Number of branch points per mm^2 - Baseline-corrected AUC (0-72 h), Mean” value in data set [1] (Table 6.2, plate 2, with MPP+ 100 μM) was 24282.5 per mm^2. In addition, the “Neurite length, Mean ± S.D.” value in [1] (Table 8.1, plate 2, with MPP+ 100 μM, 72 hours) is reported as 1303.0 ± 378.7 mm/mm^2. The “Neurite Branching, Mean ± S.D.” value in data set [1] (Table 8.2, plate 2, with MPP+ 100 μM, 72 hours) was 51711.3 ± 15178.4 per mm^2. For the same compound, in the data set on R6/2 HD mice, the Motor endurance result is “improved motor endurance”. For the same compound, the “UPDRS for motor skills, early start group” value in the data set on PD patients is 21.6±8. Moreover, in [2] (Table 9.2, plate 2), the “Cytolysis, Mean ± S.D.” value is recorded as 71.91 ± 1.28%.

`C[C@H](CCC(=O)NCCS(=O)(=O)O)[C@H]1CC[C@H]2[C@@H]3[C@@H](O)C[C@@H]4C[C@H](O)CC[C@]4(C)[C@H]3CC[C@]12C` [TUDCA, Tauroursodeoxycholic acid]: in data set [1] (AUC, MPP+ 100 μM), the “Increase of neurite length compared with MPP+ alone (control/MPP+)” value worked out at 43% and the “Increase of number of branch points compared with MPP+ alone (control/MPP+)” value is given as 60%. Moreover, the “Neurite length, Mean” value in data set [1] (Table 7.1, plate 1, with MPP+ 100 μM, 72 hours) worked out at 1825.9 mm/mm^2. Further, the “Neurite Branching, Mean ± S.D.” value in [1] (Table 7.2, plate 1, with MPP+ 100 μM, 72 hours) came out at 58836.3 ± 9596.4 per mm^2. In addition, in data set [3] (setting [9]), the “CXCL1/GROα in supernatant, Mean ± S.D.” value came to 424.96 ± 48.95 pg/mL; the “CXCL1/GROα in supernatant, Replicate 1” value is 447.19 pg/mL; the “CXCL1/GROα in supernatant, Replicate 2” value was 368.84 pg/mL; the “CXCL1/GROα in supernatant, Replicate 3” value amounted to 458.86 pg/mL. For the same compound, the “Decrease of GROα concentration” value in data set [3] (setting [10]) came out at 32%. Further, the “Baseline-adjusted ALSFRS-R at study end vs placebo” value in data set [4] (P=0.007) is “significantly higher”. The Tolerability entry in [4] (human, in vivo) is recorded as “well tolerated”. Further, the Proportion of responders in data set [4] (placebo 43%, P=0.021) is given as 87%. Moreover, the Neuroprotection result in the data set with R6/2 transgenic mice is on record as “neuroprotective effects”. The “Neurofilament Heavy Chain signal intensity, mean” value in data set [5] was found to be 1.313. The “Aβ plaque accumulation in the brain” value in the data set with APP/PS1 mice is “prevented Aβ plaque accumulation in the brain”. Moreover, the Aβ peptide-associated apoptosis entry with cortical neurons is on record as “significantly decrease Aβ peptide-associated apoptosis”. The “Neurodegeneration of nigral dopaminergic neurons caused by MPTP” value in the data set on MPTP mouse model is “significantly reduced neurodegeneration of the nigral dopaminergic neurons”. In [6] (setting [9]), the “IL-6 in supernatant, Mean ± S.D.” value was found to be 437.81 ± 24.71 pg/mL; the “IL-6 in supernatant, Replicate 1” value came out at 410.97 pg/mL; the “IL-6 in supernatant, Replicate 2” value is 442.87 pg/mL; the “IL-6 in supernatant, Replicate 3” value is 459.60 pg/mL. Also, in data set [6] (setting [10]), the “Decrease of IL-6 concentration” value worked out at 37%. Moreover, in data set [7] (setting [9]), the “TNF-α in supernatant, Mean ± S.D.” value came to 28.57 ± 0.58 pg/mL; the “TNF-α in supernatant, Replicate 1” value amounted to 29.01 pg/mL; the “TNF-α in supernatant, Replicate 2” value is 27.92 pg/mL; the “TNF-α in supernatant, Replicate 3” value stood at 28.79 pg/mL. Also, in [7] (setting [10]), the “Decrease of TNF-α concentration” value is given as 52%. Moreover, in data set [2] (Table 9.1, plate 1), the “Cytolysis, Mean ± S.D.” value is listed as 70.69 ± 2.02%. For the same compound, in data set [2] (vs Control/MPP+), the “Reduction of cytolysis (cell death) (in words)” value was “did not reduce cytolysis with statistical significance”.

Turning to `[O-][n+]1cccc(/C(Cl)=N/OC[C@H](O)CN2CCCCC2)c1` [arimoclomol, Arimoclomol], the Lifespan result with SOD(G93A) mice is given as “significantly increased the lifespan”. Also, the “Survival, hazard ratio” value in [8] is recorded as 0.77.
